Legend:
Assay type in all cases: functional
[1] = tested on: NCI-H460; experiment: Growth inhibition of human NCI-H460 cells assessed as cell growth at 0.003 uM incubated for 48 hrs by sulforhodamine B assay relative to control; details: NCI-H460, 48 h, read-out: Activity
[2] = tested on: Hs-578T; experiment: Growth inhibition of human Hs 578T cells assessed as cell growth at 0.3 uM incubated for 48 hrs by sulforhodamine B assay relative to control; details: read-out: Activity
[3] = tested on: NCI-H522; experiment: Growth inhibition of human NCI-H522 cells assessed as cell growth at 0.003 uM incubated for 48 hrs by sulforhodamine B assay relative to control; details: NCI-H522, 48 h, read-out: Activity
[4] = tested on: Malme-3M; experiment: Growth inhibition of human MALME-3M cells assessed as cell growth at 30 uM incubated for 48 hrs by sulforhodamine B assay relative to control; details: read-out: Activity
[5] = tested on: RPMI-8226; experiment: Growth inhibition of human RPMI8226 cells assessed as cell growth at 3 uM incubated for 48 hrs by sulforhodamine B assay relative to control; details: RPMI-8226, 48 h, read-out: Activity
[6] = tested on: MCF7; experiment: Growth inhibition of human MCF7 cells assessed as cell growth at 0.003 uM incubated for 48 hrs by sulforhodamine B assay relative to control; details: MCF7, 48 h, read-out: Activity
[7] = tested on: HCT-116; experiment: Growth inhibition of human HCT116 cells assessed as cell growth at 3 uM incubated for 48 hrs by sulforhodamine B assay relative to control; details: HCT-116, 48 h, read-out: Activity
[8] = tested on: SK-MEL-5; experiment: Growth inhibition of human SK-MEL-5 cells assessed as cell growth at 0.3 uM incubated for 48 hrs by sulforhodamine B assay relative to control; details: SK-MEL-5, 48 h, read-out: Activity
[9] = tested on: OVCAR-4; experiment: Growth inhibition of human OVCAR4 cells assessed as cell growth at 0.3 uM incubated for 48 hrs by sulforhodamine B assay relative to control; details: OVCAR-4, 48 h, read-out: Activity
[10] = tested on: OVCAR-3; experiment: Growth inhibition of human OVCAR3 cells assessed as cell growth at 0.003 uM incubated for 48 hrs by sulforhodamine B assay relative to control; details: OVCAR-3, 48 h, read-out: Activity
[11] = tested on: HOP-62; experiment: Growth inhibition of human HOP62 cells assessed as cell growth at 0.3 uM incubated for 48 hrs by sulforhodamine B assay relative to control; details: HOP-62, 48 h, read-out: Activity
[12] = tested on: MDA-MB-231; experiment: Growth inhibition of human MDA-MB-231 cells assessed as cell growth at 0.003 uM incubated for 48 hrs by sulforhodamine B assay relative to control; details: MDA-MB-231, 48 h, read-out: Activity
[13] = tested on: SF-295; experiment: Growth inhibition of human SF295 cells assessed as cell growth at 30 uM incubated for 48 hrs by sulforhodamine B assay relative to control; details: SF-295, 48 h, read-out: Activity
[14] = tested on: OVCAR-3; experiment: Growth inhibition of human OVCAR3 cells assessed as cell growth at 0.3 uM incubated for 48 hrs by sulforhodamine B assay relative to control; details: OVCAR-3, 48 h, read-out: Activity
[15] = tested on: SF-539; experiment: Growth inhibition of human SF539 cells assessed as cell growth at 0.3 uM incubated for 48 hrs by sulforhodamine B assay relative to control; details: SF-539, 48 h, read-out: Activity
[16] = tested on: HCC 2998; experiment: Growth inhibition of human HCC2998 cells assessed as cell growth at 0.03 uM incubated for 48 hrs by sulforhodamine B assay relative to control; details: HCC 2998, 48 h, read-out: Activity
[17] = tested on: SK-OV-3; experiment: Growth inhibition of human SKOV3 cells assessed as cell growth at 0.03 uM incubated for 48 hrs by sulforhodamine B assay relative to control; details: SK-OV-3, 48 h, read-out: Activity
[18] = tested on: 786-0; experiment: Growth inhibition of human 786-0 cells assessed as cell growth at 0.3 uM incubated for 48 hrs by sulforhodamine B assay relative to control; details: 786-0, 48 h, read-out: Activity
[19] = tested on: HCT-15; experiment: Growth inhibition of human HCT15 cells assessed as cell growth at 0.01 uM incubated for 48 hrs by sulforhodamine B assay relative to control; details: HCT-15, 48 h, read-out: Activity
[20] = tested on: SR; experiment: Growth inhibition of human SR cells assessed as cell growth at 10 uM incubated for 48 hrs by sulforhodamine B assay relative to control; details: read-out: Activity
[21] = tested on: RXF 393; experiment: Growth inhibition of human RXF393 cells assessed as cell growth at 0.1 uM incubated for 48 hrs by sulforhodamine B assay relative to control; details: RXF 393, 48 h, read-out: Activity
[22] = tested on: LOX IMVI; experiment: Growth inhibition of human LOXIMVI cells assessed as cell growth at 0.1 uM incubated for 48 hrs by sulforhodamine B assay relative to control; details: read-out: Activity
[23] = tested on: SN12C; experiment: Growth inhibition of human SN12C cells assessed as cell growth at 0.1 uM incubated for 48 hrs by sulforhodamine B assay relative to control; details: read-out: Activity
[24] = tested on: UACC-257; experiment: Growth inhibition of human UACC257 cells assessed as cell growth at 0.1 uM incubated for 48 hrs by sulforhodamine B assay relative to control; details: UACC-257, 48 h, read-out: Activity
[25] = tested on: SR; experiment: Growth inhibition of human SR cells assessed as cell growth at 0.01 uM incubated for 48 hrs by sulforhodamine B assay relative to control; details: read-out: Activity
[26] = tested on: RXF 393; experiment: Growth inhibition of human RXF393 cells assessed as cell growth at 10 uM incubated for 48 hrs by sulforhodamine B assay relative to control; details: RXF 393, 48 h, read-out: Activity
[27] = tested on: MDA-MB-231; experiment: Growth inhibition of human MDA-MB-231 cells assessed as cell growth at 10 uM incubated for 48 hrs by sulforhodamine B assay relative to control; details: MDA-MB-231, 48 h, read-out: Activity
[28] = tested on: K562; experiment: Growth inhibition of human K562 cells assessed as cell growth at 0.01 uM incubated for 48 hrs by sulforhodamine B assay relative to control; details: K562, 48 h, read-out: Activity
[29] = tested on: CCRF-CEM; experiment: Growth inhibition of human CCRF-CEM cells assessed as cell growth at 10 uM incubated for 48 hrs by sulforhodamine B assay relative to control; details: read-out: Activity
[30] = tested on: HOP-62; experiment: Growth inhibition of human HOP62 cells assessed as cell growth at 1 uM incubated for 48 hrs by sulforhodamine B assay relative to control; details: HOP-62, 48 h, read-out: Activity
[31] = tested on: SNB-19; experiment: Growth inhibition of human SNB19 cells assessed as cell growth at 100 uM incubated for 48 hrs by sulforhodamine B assay relative to control; details: SNB-19, 48 h, read-out: Activity
[32] = tested on: NCI/ADR-RES; experiment: Growth inhibition of human NCI/ADR-RES cells assessed as cell growth at 1 uM incubated for 48 hrs by sulforhodamine B assay relative to control; details: read-out: Activity
[33] = tested on: RPMI-8226; experiment: Growth inhibition of human RPMI8226 cells assessed as cell growth at 100 uM incubated for 48 hrs by sulforhodamine B assay relative to control; details: RPMI-8226, 48 h, read-out: Activity
[34] = tested on: HOP-92; experiment: Growth inhibition of human HOP92 cells assessed as cell growth at 100 uM incubated for 48 hrs by sulforhodamine B assay relative to control; details: HOP-92, 48 h, read-out: Activity

Row | Structure (SMILES) | growth at 0.003 µM [1] | growth at 0.3 µM [2] | growth at 0.003 µM [3] | growth at 30 µM [4] | growth at 3 µM [5] | growth at 0.003 µM [6] | growth at 3 µM [7] | growth at 0.3 µM [8] | growth at 0.3 µM [9] | growth at 0.003 µM [10] | growth at 0.3 µM [11] | growth at 0.003 µM [12] | growth at 30 µM [13] | growth at 0.3 µM [14] | growth at 0.3 µM [15] | growth at 0.03 µM [16] | growth at 0.03 µM [17] | growth at 0.3 µM [18] | growth at 0.01 µM [19] | growth at 10 µM [20] | also measured
1 | COc1cc2cc(Oc3ccc(NC(=O)Nc4ccc(Cl)c(C(F)(F)F)c4)cc3)c(C)nc2cc1OC | 106% | 84% | 91% | -37% | -36% | 98% | 7% | 94% | 94% | 100% | 86% | 101% | -59% | 95% | 107% | 106% | 100% | 93% |  |  | 
2 | COc1cc2cc(Oc3ccc(NC(=O)Nc4ccc(Cl)c(Cl)c4)cc3)c(C)nc2cc1OC |  |  |  |  |  |  |  |  |  |  |  |  |  |  |  |  |  |  | 100% | 1% | growth at 0.1 µM [21]: 111%; growth at 0.1 µM [22]: 96%; growth at 0.1 µM [23]: 95%; growth at 0.1 µM [24]: 92%; growth at 0.01 µM [25]: 107%; growth at 10 µM [26]: 19%; growth at 10 µM [27]: 8%; growth at 0.01 µM [28]: 108%; growth at 10 µM [29]: 4%; growth at 1 µM [30]: 101%; growth at 100 µM [31]: -41%; growth at 1 µM [32]: 76%; growth at 100 µM [33]: -47%; growth at 100 µM [34]: -100%
3 | COc1cc2cc(Oc3ccc(NC(=O)Nc4cc(C(F)(F)F)cc(C(F)(F)F)c4)cc3)c(C)nc2cc1OC |  |  |  |  |  |  |  |  |  |  |  |  |  |  |  |  |  |  | 93% | -20% | growth at 0.1 µM [21]: 99%; growth at 0.1 µM [22]: 95%; growth at 0.1 µM [23]: 100%; growth at 0.1 µM [24]: 110%; growth at 0.01 µM [25]: 92%; growth at 10 µM [26]: -44%; growth at 10 µM [27]: -83%; growth at 0.01 µM [28]: 110%; growth at 10 µM [29]: -33%; growth at 1 µM [30]: 70%; growth at 100 µM [31]: -79%; growth at 1 µM [32]: 62%; growth at 100 µM [33]: -34%; growth at 100 µM [34]: -58%
4 | Cc1nc2cc(O)c(O)cc2cc1Oc1ccc(NC(=O)Nc2ccc(Cl)c(Cl)c2)cc1 | 102% | 91% | 95% | -10% | 92% | 94% | 42% | 97% | 94% | 105% | 108% | 110% | 9% | 109% | 99% | 99% | 102% | 95% |  |  | 

— ChEMBL document CHEMBL3994622, “Design and synthesis of new RAF kinase-inhibiting antiproliferative quinoline derivatives. Part 2: Diarylurea derivatives” (Eur J Med Chem, 2017)
